{"source": "paper PMC2645951", "about": "(Bioconjugate chemistry, 2008)", "key": {"[1]": {"conditions": "background statement of the introduction, no reference given; cited from earlier work"}, "[2]": {"assay": "Water solubility", "format": "physicochemical"}, "[3]": {"tested_on": "HEK cells", "conditions": "over a similar range of concentrations; cited from earlier work"}}, "note": "Like-named read-outs stand apart in the source and are kept apart here. Where a SMILES comes first, the peptide text is derived from it. The star is where a group is joined. X1 = COc1cc2c3cc1OCCOc1cc4c(cc1OC)Cc1cc5c(OC)cc1Cc1cc(c(OCc6cn(CCOCCOCCOCCOCCOCCOCCOCCOCCNC(=O)COCC(=O)*)nn6)cc1C4)OCCOc1cc(c(cc1OC)Cc1cc(c(OC)cc1C3)OCCO5)C2"}
{"smiles": "COc1cc2c3cc1OCCOc1cc4c(cc1OC)Cc1cc5c(OC)cc1Cc1cc(c(OC)cc1C4)OCCOc1cc(c(cc1OC)C3)Cc1cc(OC)c(cc1C2)OCCO5", "note": "[Cryptophane-A]", "values": [{"measurement": "water solubility (in words)", "setting": "[1]", "result": "poor (low micromolar)"}]}
{"smiles": "COc1cc2c3cc1OCCOc1cc4c(cc1OC)Cc1cc5c(OC)cc1Cc1cc(c(OCc6cn(CCOCCOCCOCCOCCOCCOCCOCCOCCNC(=O)COCC(=O)N[C@@H](CS)C(=O)N[C@@H](CCCNC(=N)N)C(=O)NCC(=O)N[C@@H](CC(=O)O)C(=O)N[C@@H](CCCNC(=N)N)C(=O)NCC(=O)N[C@@H](CC(=O)O)C(=O)N[C@@H](CCCNC(=N)N)C(=O)NCC(=O)N[C@@H](CC(=O)O)C(=O)N[C@@H](CCCNC(=N)N)C(=O)NCC(=O)N[C@@H](CC(=O)O)C(=O)O)nn6)cc1C4)OCCOc1cc(c(cc1OC)Cc1cc(c(OC)cc1C3)OCCO5)C2", "note": "[III] (X1-CRGDRGDRGDRGD-OH; C-terminus assumed)", "values": [{"measurement": "water solubility (in words)", "setting": "[2]", "result": "limited solubility"}]}
{"smiles": "c12c3c4c5c1c1c6c7c2c2c8c3c3c9c4c4c%10c5c5c1c1c6c6c%11c7c2c2c7c8c3c3c8c9c4c4c9c%10c5c5c1c1c6c6c%11c2c2c7c3c3c8c4c4c9c5c1c1c6c2c3c41", "note": "[fullerene C60]", "values": [{"measurement": "decrease in viability of HEK cells", "setting": "[3]", "result": "10-50%"}]}
